Measurements as given in patent US20040138230A1, “Heterocyclic substituted piperazines for the treatment of schizophrenia” (priority 2002, published 2004).

Assays:
dopamine D2 receptor = dopamine D2 receptor (Homo sapiens, UniProt P14416)
[1] = molecular target: serotonin 2A (5HT2A) receptor (Homo sapiens, UniProt P28223)
serotonin 2A (5HT2A) receptor, sequence (P28223 whole entry): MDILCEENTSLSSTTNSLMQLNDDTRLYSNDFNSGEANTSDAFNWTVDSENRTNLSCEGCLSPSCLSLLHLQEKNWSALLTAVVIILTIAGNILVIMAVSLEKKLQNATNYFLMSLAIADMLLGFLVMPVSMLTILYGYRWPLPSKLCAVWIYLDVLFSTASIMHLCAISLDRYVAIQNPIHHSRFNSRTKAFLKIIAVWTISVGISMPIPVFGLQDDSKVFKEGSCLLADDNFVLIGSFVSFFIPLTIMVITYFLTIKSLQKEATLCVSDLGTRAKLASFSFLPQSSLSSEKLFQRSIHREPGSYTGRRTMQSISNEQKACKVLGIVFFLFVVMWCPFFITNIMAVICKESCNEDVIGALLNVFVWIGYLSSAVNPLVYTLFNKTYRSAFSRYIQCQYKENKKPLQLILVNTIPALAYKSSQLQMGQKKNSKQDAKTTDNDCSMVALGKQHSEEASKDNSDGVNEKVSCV
Excerpt: The ability of the novel compounds of this invention to bind to the dopamine D2 and serotonin 2A (5HT2A) receptors can be determined using conventional radioligand receptor binding assays. All receptors can be heterologously expressed in cell lines and experiments conducted in membrane preparations from the cell lines using procedures outlined below. IC50 concentrations can be determined by nonlinear regression of concentration-dependent reduction in specific binding. The Cheng-Prussoff equation can be used to convert the IC50 to Ki concentrations.
[^3H]Ketanserin binding to Swiss-h5HT2A cell membranes can be carried out in 250 μl of 50 mM Tris-HCl buffer pH 7.4. Duplicate samples containing (in order of addition) test compounds, 1.0 nM [^3H]ketanserin, and approximately 75 μg protein are incubated for 120 minutes at room temperature. Bound radioligand is separated by rapid filtration under reduced pressure through Whatman GF/B glass fiber filters previously treated with 0.3% polyethyleneimine. Radioactivity retained on the filter is determined by liquid scintillation spectrophotometry.

dopamine D2 receptor, sequence (P14416 whole entry): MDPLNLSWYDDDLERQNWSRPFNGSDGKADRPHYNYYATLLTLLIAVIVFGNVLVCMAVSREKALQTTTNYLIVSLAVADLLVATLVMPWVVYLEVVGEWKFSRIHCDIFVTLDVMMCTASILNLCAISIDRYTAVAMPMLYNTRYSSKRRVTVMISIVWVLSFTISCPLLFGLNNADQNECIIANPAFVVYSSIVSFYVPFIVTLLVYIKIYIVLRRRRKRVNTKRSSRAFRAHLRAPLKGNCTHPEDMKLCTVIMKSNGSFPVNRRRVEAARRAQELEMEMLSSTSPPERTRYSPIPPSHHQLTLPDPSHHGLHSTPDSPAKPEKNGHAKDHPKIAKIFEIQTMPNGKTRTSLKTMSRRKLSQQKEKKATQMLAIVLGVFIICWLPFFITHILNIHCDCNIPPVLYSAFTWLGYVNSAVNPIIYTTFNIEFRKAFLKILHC

Row | melting point [°C] | Ki (dopamine D2 receptor) [nM] | Ki [1] [nM] | SMILES
1 | 206 to 208 | – | – | CN1Cc2c(c3cc(CCCN4CCN(c5nsc6ccccc56)CC4)ccc3[nH]c2=O)C1 [Example 172, 8-[3-(4-BENZO[D]ISOTHIAZOL-3-YL-PIPERAZIN-1-YL)-PROPYL]-2-METHYL-1,2,3,5-TETRAHYDRO-PYRROLO[3,4-C]QUINOLIN-4-ONE]
2 | 205 to 207 | – | – | CN1Cc2c(c3cc(CCN4CCN(c5nsc6ccccc56)CC4)ccc3[nH]c2=O)C1 [Example 173, 8-[2-(4-BENZO[D]ISOTHIAZOL-3-YL-PIPERAZIN-1-YL)-ETHYL]-2-METHYL-1,2,3,5-TETRAHYDRO-PYRROLO[3,4-C]QUINOLIN-4-ONE]

The next lines start with the compound.

Row | SMILES | melting point [°C] | Ki (dopamine D2 receptor) [nM] | Ki [1] [nM]
3 | CC1(C)Cc2cc(CCN3CCN(c4noc5ccccc45)CC3)ccc2NC1=O [Example 8, 6-[2-(4-BENZO[D]ISOXAZOL-3-YL-PIPERAZIN-1-YL)-ETHYL]-3,3-DIMETHYL-3,4-DIHYDRO-1H-QUINOLIN-2-ONE] | – | 7 | 5
4 | CC1Cc2cc(CCCN3CCN(c4nsc5ccccc45)CC3)ccc2NC1=O (stereo not shown) [Example 59, 6-[3-(4-BENZO[D]ISOTHIAZOL-3-YL-PIPERAZIN-1-YL)-PROPYL]-3-METHYL-3,4-DIHYDRO-1H-QUINOLIN-2-ONE] | 212 | – | –
5 | COc1cccc2c(N3CCN(CCc4cc(C)c5c(c4)C(C)(C)CC(=O)N5)CC3)nsc12 [Example 31, 6-{2-[4-(7-METHOXY-BENZO[D]ISOTHIAZOL-3-YL)-PIPERAZIN-1-YL]-ETHYL}-4,4,8-TRIMETHYL-3,4-DIHYDRO-1H-QUINOLIN-2-ONE] | – | 1 | 2
6 | CC1Cc2cc(CCCN3CCN(c4noc5ccccc45)CC3)ccc2NC1=O (stereo not shown) [Example 60, 6-[3-(4-BENZO[D]ISOXAZOL-3-YL-PIPERAZIN-1-YL)-PROPYL]-3-METHYL-3,4-DIHYDRO-1H-QUINOLIN-2-ONE] | 185 to 187 | – | –
7 | Cc1c(Cl)c(CCN2CCN(c3nsc4ccccc34)CC2)cc2c1NC(=O)CC2(C)C [Example 23, 6-[2-(4-BENZO[D]ISOTHIAZOL-3-YL-PIPERAZIN-1-YL)-ETHYL]-7-CHLORO-4,4,8-TRIMETHYL-3,4-DIHYDRO-1H-QUINOLIN-2-ONE METHANESULFONATE] | – | 0.9 | 1
